“Also recorded” adds a separate entry of the source.
Tests used:
[1] = biological target: T1, PFKFB3 bisphosphatase (Homo sapiens, UniProt Q16875); assay: PFKFB3 bisphosphatase activity by LC-MS/MS quantitation of F6P; assay type: biochemical; conditions: for Effect on bisphosphatase activity / substrate conversion rate vs enzyme alone: Dunnett's multiple comparisons test (two-way ANOVA); for h, Hill coefficient (PFKFB3 in presence of compound) / Vmax (Hill equation, PFKFB3 in presence of compound): Hill fit of bisphosphatase kinetics; for h, Hill coefficient (PFKFB3 in presence of compound): enzyme alone 2.03; for Vmax (Hill equation, PFKFB3 in presence of compound): maximum velocity at enzyme saturation, enzyme alone 0.16; for Enzyme velocity: enzyme 100 nM, compound at 50 µM or equal to its KD, 18 h at 37 °C, Tris buffer pH 8, LC-MS/MS of F6P; for Khalf (Hill equation, PFKFB3 in presence of compound): substrate concentration giving half of maximum velocity, enzyme alone 21.51, in µM (unit assumed)
T1 construct: His tag (N, cleaved yes); made in house; host or cells: Escherichia coli BL21 (DE3) Plys
T1 sequence (Q16875 whole entry): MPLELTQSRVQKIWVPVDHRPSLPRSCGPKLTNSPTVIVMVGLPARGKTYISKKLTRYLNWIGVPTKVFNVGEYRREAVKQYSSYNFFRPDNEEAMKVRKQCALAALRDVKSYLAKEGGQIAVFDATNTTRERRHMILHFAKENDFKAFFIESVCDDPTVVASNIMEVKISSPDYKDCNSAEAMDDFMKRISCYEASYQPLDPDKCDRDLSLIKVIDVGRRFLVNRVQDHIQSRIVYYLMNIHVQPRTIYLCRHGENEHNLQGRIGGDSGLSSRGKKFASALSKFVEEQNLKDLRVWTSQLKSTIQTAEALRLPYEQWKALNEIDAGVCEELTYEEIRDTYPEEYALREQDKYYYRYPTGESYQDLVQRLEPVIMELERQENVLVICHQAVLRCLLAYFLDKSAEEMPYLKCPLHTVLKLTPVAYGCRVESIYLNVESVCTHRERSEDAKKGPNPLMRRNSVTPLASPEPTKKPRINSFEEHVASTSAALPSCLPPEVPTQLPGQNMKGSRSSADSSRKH
Procedure: HPLC grade water (18 MΩ) was prepared with a Milli-Q purification system (Millipore, Milan, IT). Ammonium formate, fructose-6-phosphate (F6P), Tris HCl, glycerol, 2-mercaptoethanol, sodium phosphate and Amicon-ultra centrifugal filters (30 kDa) were purchased from Sigma Aldrich. F2,6BP was kindly provided by Prof. Lisardo Boscá from Spanish National Research Council in Madrid, Spain. Compound AZ 33 was provided by Carlo DeDominicis, University of Aberdeen. Phosphatase activity of PFKFB3 was measured by quantitation of the reaction product (i.e. F6P) by means of liquid chromatography tandem mass spectrometry. Enzyme reaction rate was determined after 18 h of incubation at 37 °C in sterile (0.22 µm filtered) Tris buffer (20 mM Tris-HCl pH 8; 10 mM sodium phosphate; 5 mM 2-mercaptoethanol and 5% of glycerol) at a final enzyme concentration of 100 nM. Both the enzyme and the substrate (i.e. fructose-2,6-bisphosphate, F2,6BP) were pre-warmed at 37 °C for five min before starting the kinetics by spiking the substrate into the enzyme solution. To plot the enzyme kinetics, the reaction rate was measured in independent experiments at different concentration of substrate (i.e. 5, 10, 15, 20, 25, 30, 40 and 50 µM). Diafiltration on amicon-ultra filters (30 kDa MWCO) was used to stop the reactions. Both the residual substrate and the product were collected in the filtrate, while the enzyme was retained by the filter. The same protocol was used to measure the effect of ligands on enzyme phosphatase activity. For such a purpose the reaction rate was measured at the same substrate concentrations, but the enzyme was incubated with the compound and pre-warmed before starting the kinetics. Compounds were incubated with the enzyme at a concentration 50 µM or equal to their KD, if available. Independent analyses were done without the enzyme (i.e. controls) to assess any degradation of the substrate in the same experimental condition used for the enzyme kinetics. The concentration of the […] produced by the kinetics was determined by interpolation with a calibration curve obtained by the analysis of fructose-6-phosphate standards prepared in a concentration range between 0.5 µM and 50 µM. The velocity was calculated as nanomoles of F6P produced in one min by a nanomole of PFKFB3, subtracting the nanomoles of F6P produced by self-degradation of the substrate from the nanomoles of F6P produced by the enzyme kinetic.
Quantitation of F6P produced was provided by a Surveyor HPLC system connected to a TSQ Quantum Ultra triple quadrupole mass spectrometer by a Finnigan IonMax electrospray ionization (ESI) source assembled with a high flow stainless steel emitter (Thermo Scientific, Rodano, MI, Italy). Filtrate containing the kinetics products were diluted 1:4 in water and placed into the autosampler rack, which was cooled at 8 °C to prevent sample degradation during analyses. […] Table 1 reports the mobile phases and gradient program used for the elution.
The flow from the column was directly sprayed into the mass spectrometer with no further splitting. Nebulization and ionization were achieved by 70 units of sheath gas, 25 units of auxiliary gas, a capillary temperature of 270 °C and a spray voltage of −4.5 kV. The analyzer was set to scan the negative ions reported in Table 2 in Multiple Reaction Monitoring mode (MRM), with a scan time of 0.05 seconds and a resolution of 0.5 m/z for both the first and the third quadrupoles. The MRM transitions reported in Table 2 were previously optimized in a semi-automatic mode to achieve the best instrumental response and selectivity for fructose-6-phosphate, by flow injection of a standard solution.
In order to determine the effect of the PFKFB3-binding compounds on the bisphosphatase activity, a LC-MS/MS analytical method was developed. Firstly, separate kinetics were measured for the enzyme alone or equilibrated with compounds 4–8. […]

[2] = biological target: T2, RED-NHS labeled recombinant PFKFB3 (Homo sapiens, UniProt Q16875); assay: Microscale thermophoresis (MST) binding assay; conditions: for Binding Affinity: 100 nM RED-NHS labeled PFKFB3, 20 min at room temperature, Table 3; for KD: Table S3, list of synthesized peptides from VS
T2 construct: His tag (N, cleaved yes); made in house; host or cells: Escherichia coli BL21 (DE3) Plys
T2 sequence (Q16875 whole entry): as above
Procedure: The PFKFB3 plasmid was provided by Prof. Yong-Hwan Lee from Louisiana State University. The His-tagged human inducible bifunctional enzyme (GenBank code: AF056320.1) was expressed in Escherichia coli BL21 (DE3) Plys as reported previously. The PFKFB3 protein was purified using nickel affinity columns and the N-terminal His tag was removed using a standard protocol. After the treatment with thrombin the protein was eluted with an anion-exchange column. The pure protein was concentrated to 2–10 mg/mL and stored in 20 mM Tris HCl pH 8.0, 10 mM NaPi, 5 mM β-mercaptoethanol and 5% glycerol.
The dissociation constant was determined using Nanotemper microscale thermophoresis (MST)[38]. In a typical experiment, a compound was dissolved in MST buffer and mixed with 100 nM RED-NHS labeled recombinant PFKFB3 in 1:1 ratio. The mixture was incubated at room temperature for 20 min. and a full MST measurement was performed. Data were analyzed with Nanotemper software (https://nanotempertech.com/monolith/).

[3] = substrate F2,6BP 20 µM, asterisks = significance vs enzyme alone (two-way ANOVA, Dunnett)
[4] = substrate F2,6BP 25 µM, asterisks = significance vs enzyme alone
[5] = substrate F2,6BP 30 µM, asterisks = significance vs enzyme alone
[6] = substrate F2,6BP 40 µM, asterisks = significance vs enzyme alone
[7] = substrate F2,6BP 50 µM, asterisks = significance vs enzyme alone

| Compound | Effect on bisphosphatase activity / substrate conversion rate vs enzyme alone [1] | h, Hill coefficient (PFKFB3 in presence of compound) [1] | Vmax (Hill equation, PFKFB3 in presence of compound) [1] | Enzyme velocity [1, 3] | Enzyme velocity [1, 4] | Enzyme velocity [1, 5] | Enzyme velocity [1, 6] | Enzyme velocity [1, 7] | Khalf (Hill equation, PFKFB3 in presence of compound) [1] | Binding Affinity [2] | KD [2] |
| --- | --- | --- | --- | --- | --- | --- | --- | --- | --- | --- | --- |
| CC(C)C[C@H](NC(=O)[C@H](Cc1ccccc1)NC(=O)CNC(=O)[C@H](CO)NC(=O)[C@@H](N)Cc1ccc(O)cc1)C(=O)N[C@H](C(=O)O)[C@@H](C)O [Compound 4] | no significant variations | 2.39 | 0.18 | 0.05 ± 0.03 nmol/min of F6P per nmol of enzyme | 0.07 ± 0.04 nmol/min of F6P per nmol of enzyme | 0.12 ± 0.03 nmol/min of F6P per nmol of enzyme | 0.13 ± 0.04 nmol/min of F6P per nmol of enzyme | 0.14 ± 0.01 nmol/min of F6P per nmol of enzyme | 26.54 |  |  |
| SFLLRN-CONH2 [Compound 7] | no significant variations | 1.95 | 0.19 | 0.07 ± 0.01 nmol/min of F6P per nmol of enzyme | 0.07 ± 0.04 nmol/min of F6P per nmol of enzyme | 0.11 ± 0.04 nmol/min of F6P per nmol of enzyme | 0.14 ± 0.01 nmol/min of F6P per nmol of enzyme | 0.14 ± 0.01 nmol/min of F6P per nmol of enzyme | 28.12 | not able to bind the enzyme; also recorded: No evidence of binding | No binding |
| Trp-Gly-Tyr [Compound 8] | no significant variations | 2.24 | 0.21 | 0.06 ± 0.03 nmol/min of F6P per nmol of enzyme | 0.05 ± 0.00 nmol/min of F6P per nmol of enzyme | 0.10 ± 0.01 nmol/min of F6P per nmol of enzyme | 0.14 ± 0.05 nmol/min of F6P per nmol of enzyme | 0.14 ± 0.04 nmol/min of F6P per nmol of enzyme | 32.83 | not able to bind the enzyme; also recorded: No evidence of binding | No binding |

From publication PMC6937325, “Tuning PFKFB3 Bisphosphatase Activity Through Allosteric Interference” (Scientific Reports, 2019)
